According to ChEMBL document CHEMBL1137624, “Synthesis and characterization of pyrrolidine derivatives as potent agonists of the human melanocortin-4 receptor” (Bioorg Med Chem Lett, 2007):
Active and inactive are the calls of the source. The rule behind the calls is not given here.

Columns and labels:
[1] = biological target: T1, Melanocortin receptor 4 (Homo sapiens, UniProt P32245); test: Intrinsic activity at human MC4 receptor expressed in CHO cells assessed as cAMP accumulation relative to alpha-MSH; type: functional, cell-based
T1 sequence (P32245 whole entry): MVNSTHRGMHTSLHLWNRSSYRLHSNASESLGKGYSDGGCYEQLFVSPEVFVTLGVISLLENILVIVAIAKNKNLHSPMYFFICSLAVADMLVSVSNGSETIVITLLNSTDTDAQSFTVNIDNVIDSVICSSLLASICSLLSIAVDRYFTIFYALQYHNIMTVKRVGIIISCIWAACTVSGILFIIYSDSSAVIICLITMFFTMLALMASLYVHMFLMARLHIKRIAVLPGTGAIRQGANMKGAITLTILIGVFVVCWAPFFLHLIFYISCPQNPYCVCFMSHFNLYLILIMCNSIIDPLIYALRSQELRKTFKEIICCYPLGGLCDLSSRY

[2] = biological target: T1, Melanocortin receptor 4; test: Displacement of [125I]NDP-MSH from human MC4 receptor expressed in HEK293 cells; type: cell-based
[3] = biological target: T1, Melanocortin receptor 4; test: Agonist activity at human MC4 receptor expressed in CHO cells assessed as cAMP accumulation by ELISA; type: functional, cell-based
[4] = biological target: T1, Melanocortin receptor 4; test: Antagonist activity at human MC4 receptor expressed in CHO cells assessed as inhibition of alpha-MSH-stimulated of cAMP production by ELISA; type: functional, cell-based
[5] = biological target: Melanocyte-stimulating hormone receptor (Homo sapiens, UniProt Q01726); test: Binding affinity at human MC1 receptor at 10 uM
Chain of Melanocyte-stimulating hormone receptor (Q01726 whole entry, looked up): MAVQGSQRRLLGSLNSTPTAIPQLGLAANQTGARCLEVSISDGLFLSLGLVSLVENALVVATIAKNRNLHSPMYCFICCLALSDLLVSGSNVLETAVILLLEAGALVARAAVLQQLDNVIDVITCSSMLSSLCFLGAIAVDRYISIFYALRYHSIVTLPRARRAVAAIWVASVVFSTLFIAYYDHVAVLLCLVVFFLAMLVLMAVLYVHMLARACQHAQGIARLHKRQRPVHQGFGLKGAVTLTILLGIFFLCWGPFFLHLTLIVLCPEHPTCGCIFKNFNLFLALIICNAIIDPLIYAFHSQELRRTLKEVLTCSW

[6] = biological target: Melanocortin receptor 3 (Homo sapiens, UniProt P41968); test: Binding affinity at human MC3 receptor
Chain of Melanocortin receptor 3 (P41968 whole entry): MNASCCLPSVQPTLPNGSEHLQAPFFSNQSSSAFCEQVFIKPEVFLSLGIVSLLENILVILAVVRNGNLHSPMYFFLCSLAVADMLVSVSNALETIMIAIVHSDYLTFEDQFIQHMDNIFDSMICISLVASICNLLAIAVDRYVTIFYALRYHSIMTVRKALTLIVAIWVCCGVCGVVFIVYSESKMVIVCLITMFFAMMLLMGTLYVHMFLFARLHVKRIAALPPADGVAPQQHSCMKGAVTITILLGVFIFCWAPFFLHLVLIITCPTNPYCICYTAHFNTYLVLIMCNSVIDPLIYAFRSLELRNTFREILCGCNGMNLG

[7] = biological target: Melanocortin receptor 5 (Homo sapiens, UniProt P33032); test: Binding affinity at human MC5 receptor
Chain of Melanocortin receptor 5 (P33032 whole entry): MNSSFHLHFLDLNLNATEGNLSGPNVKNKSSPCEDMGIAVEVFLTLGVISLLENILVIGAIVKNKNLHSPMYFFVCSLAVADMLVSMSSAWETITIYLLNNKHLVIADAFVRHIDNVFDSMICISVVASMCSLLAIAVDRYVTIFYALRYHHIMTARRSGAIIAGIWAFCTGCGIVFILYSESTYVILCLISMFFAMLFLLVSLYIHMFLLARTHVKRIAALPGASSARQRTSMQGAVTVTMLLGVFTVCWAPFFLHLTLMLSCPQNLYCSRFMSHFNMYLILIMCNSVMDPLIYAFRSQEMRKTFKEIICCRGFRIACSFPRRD

[8] = test system: Rattus norvegicus; test: Decrease in cumulative food intake in high-fat diet fed CD rat at 5 mg/kg, ip after 1 to 6 hrs; type: functional, organism-based; parameters: dose 5 mg/kg

Row | SMILES | Intrinsic activity [1] | Ki [2] | other results
1 | Cc1ccc(N2CCN(C(=O)[C@@H]3CN(C(=O)CCc4ccccc4)C[C@H]3c3ccc(Cl)cc3)CC2)c([C@@H](N)C(C)C)c1 | 0% | 75 nM | –
2 | CC(C)[C@H](N)c1cc(C(F)(F)F)ccc1N1CCN(C(=O)[C@H](C)Cc2ccc(Cl)cc2Cl)CC1 | – | 26 nM | –
3 | CC(C)C[C@H](N)c1cc(C(F)(F)F)ccc1N1CCN(C(=O)[C@@H]2CN(S(C)(=O)=O)C[C@H]2c2ccc(Cl)cc2)CC1 | 34% | 95 nM | –
4 | CC(C)C[C@H](N)c1cc(C(F)(F)F)ccc1N1CCN(C(=O)[C@@H]2CN(Cc3ccccc3)C[C@H]2c2ccc(Cl)cc2)CC1 | 52% | 120 nM | EC50 [3]: 7300 nM
5 | CC(C)[C@H](N)c1cccc(F)c1N1CCN(C(=O)[C@@H]2CN(CCO)C[C@H]2c2ccc(Cl)cc2)CC1 | – | 580 nM | –
6 | CC(C)[C@H](N)c1cccc(F)c1N1CCN(C(=O)[C@@H]2CN(C(C)C)C[C@H]2c2ccc(Cl)cc2)CC1 | 86% | – | –
7 | CC(=O)N1C[C@@H](C(=O)N2CCN(c3c(F)cccc3[C@@H](N)C(C)C)CC2)[C@H](c2ccc(Cl)cc2)C1 | – | 220 nM | –
8 | CCCC(=O)N1C[C@@H](C(=O)N2CCN(c3c(F)cccc3[C@@H](N)C(C)C)CC2)[C@H](c2ccc(Cl)cc2)C1 | – | 260 nM | –
9 | CCN1CCC(N2C[C@@H](C(=O)N3CCN(c4ccc(C)cc4[C@@H](N)C(C)C)CC3)[C@H](c3ccc(Cl)cc3)C2)CC1 | 3% | 18 nM | –
10 | Cc1ccc(N2CCN(C(=O)[C@@H]3CN(C4CCN(CC(C)C)CC4)C[C@H]3c3ccc(Cl)cc3)CC2)c([C@@H](N)C(C)C)c1 | 1% | 5.4 nM | IC50 [4]: 1800 nM
11 | CC(C)[C@H](N)c1cccc(F)c1N1CCN(C(=O)[C@@H]2CN(C)C[C@H]2c2ccc(Cl)cc2)CC1 | – | 81 nM | –
12 | CC(C)C[C@H](N)c1cc(C(F)(F)F)ccc1N1CCN(C(=O)[C@@H]2CN(C(=O)c3ccccc3)C[C@H]2c2ccc(Cl)cc2)CC1 | 3% | 30 nM | –
13 | CC(C)[C@H](N)c1cccc(F)c1N1CCN(C(=O)[C@@H]2CN(C3CCC3)C[C@H]2c2ccc(Cl)cc2)CC1 | – | 32 nM | –
14 | CC(C)[C@H](N)c1cccc(F)c1N1CCN(C(=O)[C@@H]2CN(C(=O)C3CC3)C[C@H]2c2ccc(Cl)cc2)CC1 | – | 31 nM | –
15 | CC(C)[C@H](N)c1cc(C(F)(F)F)ccc1N1CCN(C(=O)[C@@H](Cc2ccc(Cl)cc2Cl)N2CCCC2=O)CC1 | – | 4.5 nM | –
16 | CC(C)C[C@H](N)c1cc(C(F)(F)F)ccc1N1CCN(C(=O)[C@@H]2CN(C(=O)OC(C)(C)C)C[C@H]2c2ccc(Cl)cc2)CC1 | 32% | 390 nM | –
17 | CC(C)[C@H](N)c1cccc(F)c1N1CCN(C(=O)C2CN(Cc3ccccc3)CC2c2ccc(Cl)cc2)CC1 (stereo partly drawn) | 19% | 94 nM | –
18 | CC(C)[C@H](N)c1cccc(F)c1N1CCN(C(=O)[C@@H]2CN(C(=O)c3ccccc3)C[C@H]2c2ccc(Cl)cc2)CC1 | – | 160 nM | –
19 | CC(C)C[C@H](N)c1cc(C(F)(F)F)ccc1N1CCN(C(=O)[C@@H]2CN(CCN)C[C@H]2c2ccc(Cl)cc2)CC1 | 37% | 180 nM | –
20 | CCC(=O)N1C[C@@H](C(=O)N2CCN(c3ccc(C)cc3[C@@H](N)C(C)C)CC2)[C@H](c2ccc(Cl)cc2)C1 | 31% | 59 nM | –
21 | CC(C)[C@H](N)c1cccc(F)c1N1CCN(C(=O)[C@@H]2CN(C(=O)C3CCCCC3)C[C@H]2c2ccc(Cl)cc2)CC1 | – | 350 nM | –
22 | CC(C)[C@H](N)c1cccc(F)c1N1CCN(C(=O)[C@H]2CN(Cc3ccccc3)C[C@@H]2c2ccc(Cl)cc2)CC1 | 3% | 98 nM | –
23 | CC(C)[C@H](N)c1cccc(F)c1N1CCN(C(=O)[C@@H]2CN(CCC(F)(F)F)C[C@H]2c2ccc(Cl)cc2)CC1 | – | 205 nM | –
24 | Cc1ccc(N2CCN(C(=O)[C@H]3CN(C4CCOCC4)C[C@@H]3c3ccc(Cl)cc3)CC2)c([C@@H](N)C(C)C)c1 | 18% | 8.6 nM | inhibition [5]: 33%; IC50 [4]: 65 nM; Ki [6]: 1400 nM; Ki [7]: 380 nM
25 | COCC(C)N1C[C@@H](C(=O)N2CCN(c3ccc(C)cc3[C@@H](N)C(C)C)CC2)[C@H](c2ccc(Cl)cc2)C1 (stereo partly drawn) | 36% | 64 nM | –

Row | SMILES | Intrinsic activity [1] | Ki [2] | other results
26 | CC(C)[C@H](N)c1cccc(F)c1N1CCN(C(=O)[C@@H]2CN(C3CCCCC3)C[C@H]2c2ccc(Cl)cc2)CC1 | 49% | 9.3 nM | –
27 | CC(C)C[C@H](N)c1cc(C(F)(F)F)ccc1N1CCN(C(=O)[C@@H]2CNC[C@H]2c2ccc(Cl)cc2)CC1 | 34% | 82 nM | –
28 | Cc1ccc(N2CCN(C(=O)[C@@H]3CN(C4CCCCC4)C[C@H]3c3ccc(Cl)cc3)CC2)c([C@@H](N)C(C)C)c1 | 21% | 6.6 nM | –
29 | CC(C)CN1C[C@@H](C(=O)N2CCN(c3c(F)cccc3[C@@H](N)C(C)C)CC2)[C@H](c2ccc(Cl)cc2)C1 | 52% | 43 nM | EC50 [3]: 1400 nM
30 | CC(C)C[C@H](N)c1cc(C(F)(F)F)ccc1N1CCN(C(=O)[C@@H]2CN(c3ccccc3)C[C@H]2c2ccc(Cl)cc2)CC1 | 24% | 260 nM | –
31 | COc1ccc([C@@H]2CN(C(C)C)C[C@H]2C(=O)N2CCN(c3ccc(C(F)(F)F)cc3[C@@H](N)CC(C)C)CC2)cc1 | 67% | 67 nM | EC50 [3]: 450 nM
32 | CC(C)[C@H](N)c1cccc(F)c1N1CCN(C(=O)[C@@H]2CN(Cc3ccccc3)C[C@H]2c2ccc(Cl)cc2)CC1 | 22% | 340 nM | –
33 | CCCC(=O)N1C[C@@H](C(=O)N2CCN(c3ccc(C)cc3[C@@H](N)C(C)C)CC2)[C@H](c2ccc(Cl)cc2)C1 | 14% | 68 nM | –
34 | Cc1ccc(N2CCN(C(=O)[C@@H]3CN(Cc4ccccc4)C[C@H]3c3ccc(Cl)cc3)CC2)c([C@@H](N)C(C)C)c1 | 52% | 36 nM | –
35 | CC(C)C[C@H](N)c1cc(C(F)(F)F)ccc1N1CCN(C(=O)[C@@H]2CN(C(=O)CN)C[C@H]2c2ccc(Cl)cc2)CC1 | 12% | 96 nM | –
36 | Cc1ccc(N2CCN(C(=O)C3CN(C4CCOCC4)CC3c3ccc(Cl)cc3)CC2)c([C@@H](N)C(C)C)c1 (stereo partly drawn) | 36% | 12 nM | –
37 | CC(=O)N1C[C@@H](C(=O)N2CCN(c3ccc(C)cc3[C@@H](N)C(C)C)CC2)[C@H](c2ccc(Cl)cc2)C1 | 35% | 110 nM | –
38 | CC(C)[C@H](N)c1cc(C(F)(F)F)ccc1N1CCN(C(=O)[C@@H]2CN(Cc3ccccc3)C[C@H]2c2ccc(Cl)cc2Cl)CC1 | – | 610 nM | –
39 | Cc1ccc(N2CCN(C(=O)[C@@H]3CN(C(=O)OC(C)(C)C)C[C@H]3c3ccc(Cl)cc3)CC2)c([C@@H](N)C(C)C)c1 | 0% | 15 nM | –
40 | CC(=O)N1C[C@@H](C(=O)N2CCN(c3ccc(C(F)(F)F)cc3[C@@H](N)CC(C)C)CC2)[C@H](c2ccc(Cl)cc2)C1 | 72% | 66 nM | EC50 [3]: 1900 nM
41 | CCNC(C)Cc1cccc(C(F)(F)F)c1 (stereo not drawn) | – | – | Activity [8]: Active
42 | CC(C)C(=O)N1C[C@@H](C(=O)N2CCN(c3c(F)cccc3[C@@H](N)C(C)C)CC2)[C@H](c2ccc(Cl)cc2)C1 | – | 250 nM | –
43 | Cc1ccc(N2CCN(C(=O)[C@@H]3CN(C(=O)CCCc4ccccc4)C[C@H]3c3ccc(Cl)cc3)CC2)c([C@@H](N)C(C)C)c1 | 0% | 100 nM | –
44 | CC(C)[C@H](N)c1cccc(F)c1N1CCN(C(=O)[C@@H]2CN(C3CCCC3)C[C@H]2c2ccc(Cl)cc2)CC1 | 80% | 26 nM | EC50 [3]: 400 nM
45 | Cc1ccc(N2CCN(C(=O)[C@@H]3CN(C(=O)CCCCc4ccccc4)C[C@H]3c3ccc(Cl)cc3)CC2)c([C@@H](N)C(C)C)c1 | 0% | 65 nM | –
46 | COCC(COC)N1C[C@@H](C(=O)N2CCN(c3ccc(C)cc3[C@@H](N)C(C)C)CC2)[C@H](c2ccc(Cl)cc2)C1 | 27% | 200 nM | –
47 | CC(C)[C@H](N)c1cccc(F)c1N1CCN(C(=O)[C@@H]2CN(C(=O)C(C)(C)C)C[C@H]2c2ccc(Cl)cc2)CC1 | – | 540 nM | –
48 | CC(C)[C@H](N)c1cc(C(F)(F)F)ccc1N1CCN(C(=O)CCc2ccc(Cl)cc2Cl)CC1 | – | 74 nM | –
49 | Cc1ccc(N2CCN(C(=O)[C@@H]3CN(C4CCN(C(C)C)CC4)C[C@H]3c3ccc(Cl)cc3)CC2)c([C@@H](N)C(C)C)c1 | 1% | 18 nM | –
50 | Cc1ccc(N2CCN(C(=O)[C@@H]3CN(C(=O)C4CCC4)C[C@H]3c3ccc(Cl)cc3)CC2)c([C@@H](N)C(C)C)c1 | 22% | 78 nM | –
